Laboratory results: patent US10966426B2, “Herbicidal compositions comprising phenylpyrimidines” (BASF SE, priority 2016, dated 2021)

What was measured:
Assay type in all cases: in vivo
Papaver rhoeas = test: greenhouse pre-emergence treatment, PAPRH; details: 20 DAT
In short: (§1)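 Pre-emergence spray of compounds, alone or as combinations formulated as 10% emulsion concentrate in water, directly after sowing in loamy sand (~3.0% humus); pots hooded until rooting, kept at 10-25° C or 20-35° C per species for 2 to 4 weeks. Damage scored 0-100 (100 = no emergence/complete destruction); Colby expected value E=X+Y−(X·Y/100).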

Setaria viridis = test: greenhouse pre-emergence treatment, SETVI; details: solo, WG 70%, SETVI, 31.25 gai/ha, 20 DAT
In short: as §1

Echinocloa crus-galli = test: greenhouse pre-emergence treatment, ECHCG; details: 20 DAT; for % activity: solo, WG 70%
In short: as §1

Brachiaria decumbens [1] = test: greenhouse pre-emergence treatment, BRADC; details: Urochloa decumbens, 480 h, solo, WG 70%, BRADC, 62.5 gai/ha, 20 DAT
In short: as §1

Apera spica-venti [2] = test: greenhouse pre-emergence treatment, APESV; details: solo, WG 70%, 20 DAT
In short: as §1

Avena fatua = test: greenhouse post-emergence treatment, AVEFA; details: Avena fatua, 480 h, 20 DAT, AVEFA
In short: (§2)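 Scoring used a 0 to 100 scale, with 100 denoting no emergence or full destruction of at least the above-ground parts, recorded within a 2 to 4 week test period. Test plants grew in loamy sand containing about 3.0% humus at 10-25° C. or 20-35° C., after direct sowing or transplanting, and received water-based treatments post-emergence.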

Helianthus annuus = test: greenhouse post-emergence treatment, HELAN; details: Helianthus annuus, 480 h, 20 DAT, HELAN, metribuzin WG 70% solo 35 gai/ha
Protocol: The culture containers used were plastic pots containing loamy sand with approximately 3.0% of humus as substrate. The seeds of the test plants were sown separately for each species.
For the post-emergence treatment, the test plants were grown to a plant height of from 3 to 15 cm, depending on the plant habit, and only then treated with the active compounds which had been suspended or emulsified in water. To this end, the test plants were either sown directly, and grown in the same containers, or they were first grown separately as seedlings and transplanted into the test containers a few days prior to treatment.
Depending on the species, the plants were kept at 10-25° C. and 20-35° C., respectively.
The test period extended over 2 to 4 weeks. During this time, the plants were tended and their response to the individual treatments was evaluated.
Evaluation was carried out using a scale from 0 to 100. 100 means no emergence of the plants, or complete destruction of at least the above-ground parts, and 0 means no damage or normal course of growth. A good herbicidal activity is given at values of at least 70, and very good herbicidal activity is given at values of at least 85.
The respective stated components A and B, and if appropriate, C were formulated as a 10% by weight strength emulsion concentrate and, with addition of the amount of solvent system, introduced into the spray liquor used for applying the active compound. In the examples, the solvent used was water.
In the examples below, using the method of S. R. Colby (1967) “Calculating synergistic and antagonistic responses of herbicide combinations”, Weeds 15, p. 22ff., the value E, which is expected if the activity of the individual active compounds is only additive, was calculated. E=X+Y−(X·Y/100) where X=effect in percent using herbicide A at an application rate a; • Y=effect in percent using herbicide B at application rate b; • E=expected effect (in %) of herbicide A+herbicide B at application rates a+b.

Lolium multiflorum = test: greenhouse post-emergence treatment, LOLMU; details: Lolium multiflorum, 480 h, solo, WG 70%, LOLMU, 20 DAT
In short: as §2

Galium aparine = test: greenhouse post-emergence treatment, GALAP; details: Galium aparine, 480 h, 20 DAT, GALAP
In short: (§3)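 Visual herbicidal effect (0–100) recorded over a 2 to 4 week test period after foliar treatment at plant heights of 3 to 15 cm. Expected combination effects derived by the Colby formula from single-component effects X and Y.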

Stellaria media = test: greenhouse post-emergence treatment, STEME; details: Stellaria media, 480 h, 20 DAT, STEME, metribuzin WG 70% solo 35 gai/ha
In short: as §3

Brachiaria decumbens [3] = test: greenhouse post-emergence treatment, BRADC; details: Urochloa decumbens, 480 h, 20 DAT, BRADC, metribuzin WG 70% solo 17.5 gai/ha
In short: as §3

Apera spica-venti [4] = test: greenhouse post-emergence treatment, APESV; details: 20 DAT, APESV; for % activity: solo, WG 70%
In short: as §3

[5] = metribuzin WG 70% solo 17.5 gai/ha
[6] = metribuzin WG 70% solo 35 gai/ha
[7] = metribuzin WG 70% solo 70 gai/ha

Structure (SMILES): CSc1nnc(C(C)(C)C)c(=O)n1N [metribuzin]
- inhibition at 31.25 g/ha (Papaver rhoeas; Papaver rhoeas, 480 h, metribuzin WG 70% solo 31.25 gai/ha): 80%
- inhibition at 125 g/ha (Papaver rhoeas; Papaver rhoeas, 480 h, metribuzin WG 70% solo 125 gai/ha): 98%
- % activity (Papaver rhoeas; solo, WG 70%, 31.25 gai/ha): 80%
- % activity (Setaria viridis): 0%
- inhibition at 62.5 g/ha (Echinocloa crus-galli; Echinochloa crus-galli, 480 h, metribuzin WG 70% solo 62.5 gai/ha): 30%
- % activity (Echinocloa crus-galli; 31.25 gai/ha): 0%
- % activity (Echinocloa crus-galli; 62.5 gai/ha): 30%
- pest or weed control at 62.5 g/ha (Brachiaria decumbens [1]): 0%
- % activity (Apera spica-venti [2]; 31.25 gai/ha): 30%
- % activity (Apera spica-venti [2]; 62.5 gai/ha): 50%
- inhibition at 17.5 g/ha (Avena fatua; [5]): 5%
- inhibition at 35 g/ha (Avena fatua; [6]): 10%
- inhibition at 70 g/ha (Avena fatua; [7]): 40%
- pest or weed control at 17.5 g/ha (Avena fatua; solo, WG 70%, 17.5 gai/ha): 5%
- pest or weed control at 35 g/ha (Avena fatua; solo, WG 70%, 35 gai/ha): 10%
- pest or weed control at 70 g/ha (Avena fatua; solo, WG 70%, 70 gai/ha): 40%
- inhibition at 35 g/ha (Helianthus annuus): 70%
- pest or weed control at 17.5 g/ha (Lolium multiflorum; 17.5 gai/ha): 20%
- pest or weed control at 35 g/ha (Lolium multiflorum; 35 gai/ha): 60%
- pest or weed control at 70 g/ha (Lolium multiflorum; 70 gai/ha): 65%
- inhibition at 17.5 g/ha (Galium aparine; [5]): 0%
- inhibition at 35 g/ha (Galium aparine; [6]): 0%
- inhibition at 70 g/ha (Galium aparine; [7]): 0%
- inhibition at 140 g/ha (Galium aparine; metribuzin WG 70% solo 140 gai/ha): 0%
- pest or weed control at 35 g/ha (Galium aparine; solo, WG 70%, 35 gai/ha): 0%
- pest or weed control at 70 g/ha (Galium aparine; solo, WG 70%, 70 gai/ha): 0%
- pest or weed control at 140 g/ha (Galium aparine; solo, WG 70%, 140 gai/ha): 0%
- inhibition at 35 g/ha (Stellaria media): 80%
- inhibition at 17.5 g/ha (Brachiaria decumbens [3]): 50%
- inhibition at 17.5 g/ha (Apera spica-venti [4]; Apera spica-venti, 480 h, metribuzin WG 70% solo 17.5 gai/ha): 10%
- inhibition at 35 g/ha (Apera spica-venti [4]; Apera spica-venti, 480 h, metribuzin WG 70% solo 35 gai/ha): 55%
- % activity (Apera spica-venti [4]; 17.5 gai/ha): 10%
- % activity (Apera spica-venti [4]; 35 gai/ha): 55%
- % activity (Apera spica-venti [4]; 70 gai/ha): 90%
